Results as given in patent US20240059695A1, “SUBSTITUTED IMIDAZO[1,5-b]PYRIDAZINE COMPOUNDS AS KINASE INHIBITORS AND USE THEREOF” (IMPACT THERAPEUTICS (SHANGHAI), INC, priority 2020, published 2024).

Tested on: human ovarian cancer OVCAR-3 cell
Assay: Synergistic inhibition of Example 1 in combination with senaparib, MTT assay
Assay type: cell-based
Details: for Combination Index (CI): OVCAR-3, 3 days
Experimental: The cells were digested by trypsinase and centrifuged at 800 rpm for 5 minutes, the supernatant was discarded, and the residual was resuspended with fresh medium (1640 medium+10% FBS) and counted. The cells were seeded into 96-well cell culture plate with an appropriate density and incubated overnight in a 5% CO2 incubator at 37° C. The stock solutions of the test substances were serially diluted to 4-5 concentrations by DMSO at the ratios of 1:3, respectively. 5 µL diluent of each concentration was added to 120 μL of medium (25 times diluted) and mixed by shaking. The overnight cell plates were taken and the culture medium was removed, […] of fresh medium was added to each well, and 5 μL of diluted compound or 5 μL of medium containing DMSO was added respectively (the final concentration of DMSO is 1%), and the culture plate was then placed in a 5% CO2 incubator at 37° C. for 3 days. After removing the original solution, 100 μL of fresh serum-free DMEM medium containing MTT (0.5 mg/mL) was added to each well, the culture was continued. After 4 hours, the original solution was removed, 100 μL of DMSO was added to each well, the 96-well plates were shaken for 10 minutes in the dark and placed in a multi-function reader to read the absorbance at the wavelength of 552/690 nm. Cell viability (%)=(ODcompound−ODbackground)/(ODDMSO−ODbackground)×100. The combination index (CI) was calculated with the software CalcuSyn.

## Cc1nc(-c2ccn[nH]2)n2nc(N3CCOC[C@H]3C)cc(-c3ccnn3C)c12 [Example 1, (R)-3-methyl-4-(5-methyl-4-(1-methyl-1H-pyrazol-5-yl)-7-(1H-pyrazol-5-yl)imidazo[1,5-b]pyridazin-2-yl)morpholine]
11 nM Example 1 + 37 nM senaparib
  Combination Index (CI): 1.157
11 nM Example 1 + 111 nM senaparib
  Combination Index (CI): 0.215
11 nM Example 1 + 333 nM senaparib
  Combination Index (CI): 0.069
11 nM Example 1 + 1000 nM senaparib
  Combination Index (CI): 0.052
11 nM Example 1 + 3000 nM senaparib
  Combination Index (CI): 0.044
33 nM Example 1 + 37 nM senaparib
  Combination Index (CI): 0.275
33 nM Example 1 + 111 nM senaparib
  Combination Index (CI): 0.213
33 nM Example 1 + 333 nM senaparib
  Combination Index (CI): 0.18
33 nM Example 1 + 1000 nM senaparib
  Combination Index (CI): 0.148
33 nM Example 1 + 3000 nM senaparib
  Combination Index (CI): 0.12
100 nM Example 1 + 37 nM senaparib
  Combination Index (CI): 0.603
100 nM Example 1 + 111 nM senaparib
  Combination Index (CI): 0.544
100 nM Example 1 + 333 nM senaparib
  Combination Index (CI): 0.488
100 nM Example 1 + 1000 nM senaparib
  Combination Index (CI): 0.424
100 nM Example 1 + 3000 nM senaparib
  Combination Index (CI): 0.364
300 nM Example 1 + 37 nM senaparib
  Combination Index (CI): 1.588
300 nM Example 1 + 111 nM senaparib
  Combination Index (CI): 1.471
300 nM Example 1 + 333 nM senaparib
  Combination Index (CI): 1.377
300 nM Example 1 + 1000 nM senaparib
  Combination Index (CI): 1.276
300 nM Example 1 + 3000 nM senaparib
  Combination Index (CI): 1.195
Combination of Example 1 and senaparib
  synergistic effect on inhibiting the proliferation of OVCAR-3 cells (in words): good synergistic effect
